The values below come from patent publication US20260297080A1, “BICYCLIC COMPOUNDS AS CDK INHIBITORS” (BeOne Medicines I GmbH, priority 2022, published 2026).

In one experiment the target is CDK2/Cyclin E1 (Homo sapiens, UniProt P24941). The experiment in a line: CDK2/Cyclin E1 Biochemical Assay (TR-FRET), 1 mM ATP. As to conditions: 0.15 μM Rb (Ser780)-biotin substrate, pH7.0, 60 min preincubation, 90 min reaction, room temperature. As for the experimental part:
(§1) CDK2/Cyclin E1 and CDK1/Cyclin B1 Biochemical Assays
(§2) Compounds disclosed herein were tested for inhibition of CDK2/Cyclin E1 or CDK1/Cyclin B1 kinase in an assay based on the time-resolved fluorescence-resonance energy transfer (TR-FRET) methodology. The assay was carried out in 384-well low volume black plates in a reaction mixture containing CDK2/Cyclin E1 or CDK1/Cyclin B1, 1 mM ATP for CDK2/Cyclin E1 and CDK1/Cyclin B1, 0.15 μM Rb (Ser780)-biotin substrate and 0-10 μM compound in buffer containing 50 mM HEPES pH7.0, 0.02% NaN3, 0.01% BSA, 0.1 mM Orthovanadate, 50 mM MgCl2, 1 mM DTT and 0.005% Tween-20. The kinase was incubated with compound for 60 minutes at room temperature and the reaction was initiated by the addition of ATP and Rb (Ser780)-biotin substrate. After reaction at room temperature for 90 minutes, an equal volume of stop/detection solution was added according to the manufacture's instruction (Cisbio Bioassays). The stop/detection solution contained Streptavidin-XL665 and Anti-pRb (Ser780) mAb-Eu Cryptate in Detection buffer (Cisbio Bioassays). Plates were incubated at room temperature for 60 minutes, and the TR-FRET signals (ex337 nm, em665 nm/620 nm) were recorded on a PHERAstar FSX plate reader (BMG Labtech). The inhibition percentage of CDK2/Cyclin E1 or CDK1/Cyclin B1 kinase activity in presence of increasing concentrations of compounds was calculated based on the ratio of fluorescence at 665 nm to that at 620 nm. The IC50 for each compound was derived from fitting the data to the four-parameter logistic equation by Dotmatics.
A general note: TR-FRET usually uses a lanthanide donor and a delayed reading to cut background.

In the next experiment the target is CDK1/Cyclin B1 (Homo sapiens, UniProt P06493). Kind of experiment: CDK1/Cyclin B1 Biochemical Assay (TR-FRET), 1 mM ATP. To be noted: 0.15 μM Rb (Ser780)-biotin substrate, pH7.0, 60 min preincubation, 90 min reaction, room temperature. As for the experimental part:
as §1, §2

pIC50: −log10 of the molar value.

Chain of CDK1/Cyclin B1 (P06493 whole entry): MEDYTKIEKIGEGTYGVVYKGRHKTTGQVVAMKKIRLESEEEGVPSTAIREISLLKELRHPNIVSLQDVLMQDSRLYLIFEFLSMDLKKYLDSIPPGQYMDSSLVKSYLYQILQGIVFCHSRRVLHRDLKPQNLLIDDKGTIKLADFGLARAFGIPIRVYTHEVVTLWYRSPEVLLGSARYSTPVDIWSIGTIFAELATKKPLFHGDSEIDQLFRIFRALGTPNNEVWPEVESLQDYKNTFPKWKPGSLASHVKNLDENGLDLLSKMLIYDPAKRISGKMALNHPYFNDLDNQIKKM
Chain of CDK1/Cyclin B1 (P14635 whole entry partner): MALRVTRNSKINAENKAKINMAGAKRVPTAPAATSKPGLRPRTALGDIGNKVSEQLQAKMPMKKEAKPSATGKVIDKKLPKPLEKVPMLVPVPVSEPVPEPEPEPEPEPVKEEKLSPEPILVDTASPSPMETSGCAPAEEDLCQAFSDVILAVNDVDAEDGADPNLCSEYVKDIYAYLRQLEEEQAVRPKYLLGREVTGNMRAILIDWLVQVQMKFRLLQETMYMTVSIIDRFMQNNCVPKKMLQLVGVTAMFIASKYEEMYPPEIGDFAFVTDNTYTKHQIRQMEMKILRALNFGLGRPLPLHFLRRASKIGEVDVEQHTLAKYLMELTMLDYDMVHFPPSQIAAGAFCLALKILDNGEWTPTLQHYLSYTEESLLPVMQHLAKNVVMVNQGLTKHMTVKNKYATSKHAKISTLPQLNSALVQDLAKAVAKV

For orientation: pIC50 means the IC50 on a negative log10 scale, so that one unit is a factor of ten. High values mean a low IC50, low ones a high IC50. `CC1(NC(=O)O[C@H]2CC[C@@H](c3cc(Nc4cc5c(cc4F)S(=O)(=O)NC5)n[nH]3)C2)CCC1` (relative stereo) [Example 445, cis-3-(3-((6-fluoro-1,1-dioxido-2,3-dihydrobenzo[d]isothiazol-5-yl)amino)-1H-pyrazol-5-yl)cyclopentyl(1-methylcyclobutyl)carbamate]: the pIC50 at CDK2/Cyclin E1 was 8.74; against CDK1/Cyclin B1, 5.98.
As for `CC1(NC(=O)O[C@H]2CC[C@@H](c3cc(Nc4cc5c(cc4F)S(=O)(=O)NC5)n[nH]3)C2)CCCC1` (relative stereo) [Example 446, cis-3-(3-((6-fluoro-1,1-dioxido-2,3-dihydrobenzo[d]isothiazol-5-yl)amino)-1H-pyrazol-5-yl)cyclopentyl(1-methylcyclopentyl)carbamate], the pIC50 on CDK2/Cyclin E1 is 8.77; against CDK1/Cyclin B1, 5.85.
On the same counts, the results for `CC1(C)CCCN1C(=O)O[C@H]1CC[C@@H](c2cc(Nc3cc4c(cc3F)S(=O)(=O)NC4)n[nH]2)C1` (relative stereo) [Example 447, cis-3-(3-((6-fluoro-1,1-dioxido-2,3-dihydrobenzo[d]isothiazol-5-yl)amino)-1H-pyrazol-5-yl)cyclopentyl 2,2-dimethylpyrrolidine-1-carboxylate] are 8.32 and 5.89.
On the same counts, the results for `O=C(NC12CC(C1)C2)O[C@H]1CC[C@@H](c2cc(Nc3ccc4c(c3F)CS(=O)(=O)N4)n[nH]2)C1` (relative stereo) [Example 448, cis-3-(3-((4-fluoro-2,2-dioxido-1,3-dihydrobenzo[c]isothiazol-5-yl)amino)-1H-pyrazol-5-yl)cyclopentyl bicyclo[1.1.1]pentan-1-ylcarbamate] are 8.96 and 7.19.
Regarding `CC1(C)CCN1C(=O)O[C@H]1CC[C@@H](c2cc(Nc3cc4c(cc3F)S(=O)(=O)NC4)n[nH]2)C1` (relative stereo) [Example 449, cis-3-(3-((6-fluoro-1,1-dioxido-2,3-dihydrobenzo[d]isothiazol-5-yl)amino)-1H-pyrazol-5-yl)cyclopentyl 2,2-dimethylazetidine-1-carboxylate], the pIC50 against CDK2/Cyclin E1 is 8.39; on CDK1/Cyclin B1 it was 5.92.
For `CC1(NC(=O)O[C@H]2CC[C@@H](c3cc(Nc4cc5c(cc4F)S(=O)(=O)NC5)n[nH]3)C2)CCOC1` (relative stereo) [Example 450, cis-3-(3-((6-fluoro-1,1-dioxido-2,3-dihydrobenzo[d]isothiazol-5-yl)amino)-1H-pyrazol-5-yl)cyclopentyl(3-methyltetrahydrofuran-3-yl)carbamate], in that order: 8.12 and 5.21.
With `CC1(NC(=O)O[C@H]2CC[C@@H](c3cc(Nc4cc5c(cc4F)S(=O)(=O)NC5)n[nH]3)C2)COC1` (relative stereo) [Example 451, cis-3-(3-((6-fluoro-1,1-dioxido-2,3-dihydrobenzo[d]isothiazol-5-yl)amino)-1H-pyrazol-5-yl)cyclopentyl(3-methyloxetan-3-yl)carbamate], the figures for the pIC50 at CDK2/Cyclin E1 and against CDK1/Cyclin B1 were 8.00 and 5.15, respectively.
For `CN1c2ccc(Nc3cc([C@@H]4CC[C@H](OC(=O)NC56CC(C5)C6)C4)[nH]n3)c(F)c2CS1(=O)=O` (relative stereo) [Example 452, cis-3-(3-((4-fluoro-1-methyl-2,2-dioxido-1,3-dihydrobenzo[c]isothiazol-5-yl)amino)-1H-pyrazol-5-yl)cyclopentyl bicyclo[1.1.1]pentan-1-ylcarbamate], in that order: 9.30 and 6.31.
Take `CN1c2ccc(Nc3cc([C@@H]4CC[C@H](OC(=O)NC(C)(C)C)C4)[nH]n3)c(F)c2CS1(=O)=O` (relative stereo) [Example 453, cis-3-(3-((4-fluoro-1-methyl-2,2-dioxido-1,3-dihydrobenzo[c]isothiazol-5-yl)amino)-1H-pyrazol-5-yl)cyclopentyl tert-butylcarbamate]: the figures for the pIC50 against CDK2/Cyclin E1 and at CDK1/Cyclin B1 were 9.05 and 6.35, respectively.
As for `[2H]C([2H])([2H])N1c2ccc(Nc3cc([C@@H]4CC[C@H](OC(=O)NC(C)(C)C)C4)[nH]n3)cc2CS1(=O)=O` (relative stereo) [Example 454, cis-3-(3-((1-(methyl-d3)-2,2-dioxido-1,3-dihydrobenzo[c]isothiazol-5-yl)amino)-1H-pyrazol-5-yl)cyclopentyl tert-butylcarbamate], the pIC50 at CDK2/Cyclin E1 is 9.30; against CDK1/Cyclin B1, 6.94.
For `[2H]C([2H])([2H])N1c2ccc(Nc3cc([C@@H]4CC[C@H](OC(=O)NC56CC(C5)C6)C4)[nH]n3)cc2CS1(=O)=O` (relative stereo) [Example 455, cis-3-(3-((1-(methyl-d3)-2,2-dioxido-1,3-dihydrobenzo[c]isothiazol-5-yl)amino)-1H-pyrazol-5-yl)cyclopentyl bicyclo[1.1.1]pentan-1-ylcarbamate], in that order: 9.05 and 7.01.
For `O=C(NC12CC(O)(C1)C2)O[C@H]1CC[C@@H](c2cc(Nc3cc4c(cc3F)S(=O)(=O)NC4)n[nH]2)C1` (relative stereo) [Example 456, cis-3-(3-((6-fluoro-1,1-dioxido-2,3-dihydrobenzo[d]isothiazol-5-yl)amino)-1H-pyrazol-5-yl)cyclopentyl(3-hydroxybicyclo[1.1.1]pentan-1-yl)carbamate], in that order: 9.30 and 6.26.
On the same counts, the results for `O=C(NC12CCC(O)(CC1)CC2)O[C@H]1CC[C@@H](c2cc(Nc3cc4c(cc3F)S(=O)(=O)NC4)n[nH]2)C1` (relative stereo) [Example 457, cis-3-(3-((6-fluoro-1,1-dioxido-2,3-dihydrobenzo[d]isothiazol-5-yl)amino)-1H-pyrazol-5-yl)cyclopentyl(4-hydroxybicyclo[2.2.2]octan-1-yl)carbamate] are 8.74 and 5.95.
For the compound `CC(C)NC(=O)O[C@H]1CC[C@@H](c2cc(Nc3ccc4c(c3F)N(C)S(=O)(=O)N4C)n[nH]2)C1` (relative stereo) [Example 458, cis-3-(3-((4-fluoro-1,3-dimethyl-2,2-dioxido-1,3-dihydrobenzo[c][1,2,5]thiadiazol-5-yl)amino)-1H-pyrazol-5-yl)cyclopentyl isopropylcarbamate], the pIC50 on CDK2/Cyclin E1 is 7.92; on CDK1/Cyclin B1 it was 5.46.
For `O=C(NC1CC1)O[C@H]1CC[C@@H](c2cc(Nc3ccc4c(c3F)CS(=O)(=O)N4)n[nH]2)C1` (relative stereo) [Example 459, cis-3-(3-((4-fluoro-2,2-dioxido-1,3-dihydrobenzo[c]isothiazol-5-yl)amino)-1H-pyrazol-5-yl)cyclopentyl cyclopropylcarbamate], the pIC50 at CDK2/Cyclin E1 was 8.22; against CDK1/Cyclin B1 it was 5.70.
Turning to `CCCNC(=O)O[C@H]1CC[C@@H](c2cc(Nc3ccc4c(c3F)CCS(=O)(=O)N4)n[nH]2)C1` (relative stereo) [Example 460, cis-3-(3-((5-fluoro-2,2-dioxido-3,4-dihydro-1H-benzo[c][1,2]thiazin-6-yl)amino)-1H-pyrazol-5-yl)cyclopentyl propylcarbamate], the pIC50 at CDK2/Cyclin E1 is 8.51; at CDK1/Cyclin B1, 6.23.
For `CC[C@H](C)NC(=O)O[C@H]1CC[C@@H](c2cc(Nc3ccc4c(c3F)CCS(=O)(=O)N4)n[nH]2)C1` (relative stereo) [Example 461, cis-3-(3-((5-fluoro-2,2-dioxido-3,4-dihydro-1H-benzo[c][1,2]thiazin-6-yl)amino)-1H-pyrazol-5-yl)cyclopentyl((S)-sec-butyl)carbamate], in that order: 9.52 and 6.57.
`CC1(NC(=O)O[C@H]2CC[C@@H](c3cc(Nc4ccc5c(c4F)CCS(=O)(=O)N5)n[nH]3)C2)CC1` (relative stereo) [Example 462, cis-3-(3-((5-fluoro-2,2-dioxido-3,4-dihydro-1H-benzo[c][1,2]thiazin-6-yl)amino)-1H-pyrazol-5-yl)cyclopentyl(1-methylcyclopropyl)carbamate]: the pIC50 on CDK2/Cyclin E1 is 9.15; on CDK1/Cyclin B1, 6.46.
For `CC(C)NC(=O)O[C@H]1CC[C@@H](c2cc(Nc3ccc4c(c3F)NS(=O)(=O)N4)n[nH]2)C1` (relative stereo) [Example 465, cis-3-(3-((4-fluoro-2,2-dioxido-1,3-dihydrobenzo[c][1,2,5]thiadiazol-5-yl)amino)-1H-pyrazol-5-yl)cyclopentyl isopropylcarbamate], in that order: 7.74 and 5.31.
In the case of `CC(C)NC(=O)O[C@H]1CC[C@@H](c2cc(Nc3ccc4c(c3F)N(C)S(=O)(=O)N4)n[nH]2)C1` (relative stereo) [Example 466, cis-3-(3-((4-fluoro-3-methyl-2,2-dioxido-1,3-dihydrobenzo[c][1,2,5]thiadiazol-5-yl)amino)-1H-pyrazol-5-yl)cyclopentyl isopropylcarbamate], the figures for the negative logarithm of the IC50 (pIC50) against CDK2/Cyclin E1 and against CDK1/Cyclin B1 were 7.20 and less than 5.00, respectively.
